Data on one compound can be found in US11352371B2, “Thienopyrimidine derivatives as ACC inhibitors and uses thereof” (Gilead Sciences, Inc., priority 2019, dated 2022).

The nature of series [1]: Preliminary study of systemic blood clearance after intravenous administration. It counts as in vivo. Conditions: monkeys, preliminary studies.
A short description of series [2]: Rat liver/plasma ratio determination. Conditions: male SD rats, single oral dose 5 mg/kg or 10 mg/kg. It counts as in vivo, male Sprague-Dawley (SD) rats. Here is the method:
Liver to plasma (L/P) ratios of certain example compounds were determined in male Sprague-Dawley (SD) rats 2 hours and 24 hours after their administration.
The in vivo phases of the rat L/P ratio determinations for example compounds were conducted at Covance Laboratories (Madison, Wis.) or Charles River Laboratories (Worcester, Wash.). Animals were housed and handled in accordance with the Guide for the Care and Use of Laboratory Animals, Institute of Laboratory Animal Resources. The protocols were reviewed and approved by Institutional Animal Care and Use Committees (IACUC). Male Sprague-Dawley (SD) rats weighing approximately 300 g were fasted overnight prior to dosing and up to 4 hours after dosing. Each example compound was dosed at a single dose at 5 mg/kg or 10 mg/kg orally by gavage to male SD rats (n=3 rats/group). The aqueous formulation contained ethyl alcohol and polyethylene glycol 300. Approximately 100 μL plasma and 0.5 g liver samples were collected from each animal either 2 hours or 24 hours after dosing. The liver samples were homogenized by hard tissue homogenizer probes (Omni International, Kennesaw, Ga.) with 4× extraction buffer. For LC-MS/MS analysis, plasma and liver samples were prepared through protein precipitation extraction and analyzed on a Scitex API 5500 or 6500 LC-MS/MS instrument (Applied Biosystems, Foster City, Calif.). Analyte was eluted on a 1.7 μm 50×2.1 mm Acquity UPLC BEH C18 column (Waters, Milford, Mass.) using mobile phase containing 0.1% formic acid and a linear gradient from 55% to 95% acetonitrile at a flow rate of 800 μL/min. A liver/plasma ratio for each compound was calculated using the liver and plasma concentrations at the corresponding time point (2 hours or 24 hours). Noncompartmental pharmacokinetic parameters were calculated using Phoenix 32 (Pharsight Corporation, Mountain View, Calif.).
To assess the liver loading potential of the compounds, rat liver/plasma ratios (Rat L/P Ratio) values were determined for example compounds and are listed below in Table 1 for 2 hour and 24 hour timepoints (Rat L/P Ratio (2h/24h)).

Series [3] relates to monkey hepatocytes. Put plainly: In vitro hepatic uptake in monkey hepatocytes. The series is classed as in vitro ADME. To be noted: data not shown. The method, then: To further investigate the liver partitioning properties of the compound of Example 1, the compound was co-administered with rifampicin (RIF, pan-OATP inhibitor) in cynomolgus monkeys in vivo and hepatic uptake experiments were performed in monkey hepatocytes in vitro. […] Therefore the coadministration experiments as described below in more detail were conducted to administer Example 1 compound orally (5 mg/kg) in the absence and presence of IV administration of RIF (30 mg/kg).

Series [4] deals with De Novo Lipogenesis (DNL) in liver. In words: In vivo De Novo Lipogenesis study. Further details: species or system Male Sprague Dawley (SD) rats. Conditions: Rattus norvegicus; male SD rats, single p.o. dose, acetate i.p. 3h post-dose, livers collected 1h later; read-out: effective dose that decreased in vivo DNL by 50% (ED50). The method, then: The DNL inhibitory activity of the compound of Example 1 was assessed in vivo as follows.
The studies were performed at Covance Laboratories (Madison, Wis.) in compliance with Institutional Animal Care and Use Committee protocols. Male Sprague Dawley (SD) rats were purchased from Envigo RMS, INC and were acclimatized for 7 days prior to study initiation. Animals were provided ad libitum access to food and water for the duration of the study. On the day of the experiment, animals were randomized into dose groups (n=6 rats/group) based on body weight and received a single p.o dose of vehicle (0.1% Tween 80 in water, pH 7.5-8.0) or a dose range of the compound of Example 1 (0.1 μg/kg-1 mg/kg). 3h post-dose (Example 1), the animals received a single i.p bolus of […] (Perkin Elmer, 32 μCi/animal) and were sacrificed 1h later, and livers were collected for DNL analysis. An approx. 0.75 g piece of liver was saponified at 70° C. for 120 min in 1.5 mL of 2.5M NaOH followed by addition of 2.5 mL of ethanol, vigorous mixing. […] Residual ether fractions were dissolved in at least 5 mL of Ultima Gold XR scintillation fluid and analyzed by liquid scintillation counting (LSC). The resulting dpm ([…]) values were normalized to tissue weight and the data were expressed as a percent of vehicle. […]

Series [5] has as its system HepG2 cells. In words: In vitro De Novo Lipogenesis (DNL) assay, 13C-acetate incorporation into palmitic acid. Conditions: Homo sapiens, 1 hour preincubation, 24 hours with 10 mM 13C-labeled acetate. The series is classed as cell-based. Summed up: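 HepG2 cells were preincubated with compound for 1 h, then given 10 mM 13C-acetate for 24 h at 37 °C. Lipids were saponified with KOH/ethanol at 70 °C, and palmitate carrying 3–7 13C was quantified by RapidFire-QTOF MS. This signal was normalized to oleate and plotted against compound concentration.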

For the compound `COc1ccccc1[C@H](Cn1c(=O)n(C(C)(C)C(=O)NS(=O)(=O)C2(C)CC2)c(=O)c2c(C)c(-c3ncco3)sc21)O[C@@H]1C[C@H]2CC[C@@H](C1)O2` [Example 1, 2-(1-((R)-2-(((1R,3s,5S)-8-oxabicyclo[3.2.1]octan-3-yl)oxy)-2-(2-methoxyphenyl)ethyl)-5-methyl-6-(oxazol-2-yl)-2,4-dioxo-1,4-dihydrothieno[2,3-d]pyrimidin-3(2H)-yl)-2-methyl-N-((1-methylcyclopropyl)sulfonyl)propanamide], in series [1], the systemic blood clearance entry is given as “higher than hepatic blood flow”. For the same compound, the “L/P Ratio (2 h)” value in series [2] (liver to plasma concentration 2 hours after dosing) was determined as 520. The “L/P Ratio (24 h)” value in series [2] (liver to plasma concentration 24 hours after dosing) is listed as 1526. In addition, the hepatic uptake entry in series [3] is listed as “strong hepatic uptake”. Besides, the ED50 in series [4] came out at 0.08 mg/kg. In addition, the EC50 in series [5] amounted to 1 nM.

The term ED50 denotes the midpoint of the dose-response relation. The EC50 is the concentration needed to bring the measured effect to its halfway point.
